Paper PMC7570544, “Biological Activities and ADMET-Related Properties of Novel Set of Cinnamanilides” (Molecules, 2020)
In brackets after ≈: the same amount, converted by molar mass.

Assays:
[1] = tested on: methicillin-resistant Staphylococcus aureus (MRSA) SA 630; test: In vitro antibacterial evaluation, broth microdilution MIC, MRSA isolate SA 630; format: cell-based; conditions: clinical isolate MRSA SA 630
[2] = tested on: methicillin-resistant Staphylococcus aureus (MRSA) 63718; test: In vitro antibacterial evaluation, broth microdilution MIC, MRSA isolate 63718; format: cell-based; conditions: clinical isolate MRSA 63718
[3] = RP-HPLC, 72:28 MeOH:H2O
[4] = tested on: NF-κB in THP1-Blue™ NF-κB cells; test: Determination of NF-κB activity after LPS stimulation (Quanti-Blue); format: cell-based, human; conditions: 1 µM compound, 1 h pretreatment, LPS 1 µg/mL, 24 h, vs DMSO group
Procedure: To evaluate the anti-inflammatory potential of novel compounds, their ability to attenuate the lipopolysaccharide (LPS)-activated pro-inflammatory transcription nuclear factor (NF)-κB was measured as was described previously. Briefly, THP1-Blue™ NF-κB cells were pretreated by tested compounds dissolved in DMSO in the non-toxic concentration 1 µM for 1 h. After LPS (1 µg/mL) stimulation, the NF-κB activity was evaluated by Quanti-Blue medium (Invivogen) according to the manufacturer’s instructions. The results from 3 independent experiments performed in triplicate (n = 9) were analyzed by GraphPad Prism 8.0.1 software. The outlaying values were excluded by ROUT algorithms (Q = 5%).
Figure 1 Effect of tested compounds on activity of transcription factor NF-κB. […] Then, lipopolysaccharide (LPS) 1 µg/mL was added to trigger the NF-κB activation. The activity of NF-κB was measured 24 h after LPS stimulation using QuantiBlue™ assay. The graph represents mean ± SEM (n = 9). […] Groups were compared with the help of the one-way ANOVA test followed by Fisher’s LSD multiple comparison test. * indicates statistical significance (p < 0.05) to DMSO group; ** indicates statistical significance (p < 0.01) to DMSO group; *** indicates statistical significance (p < 0.001) to DMSO group; **** indicates statistical significance (p < 0.0001) to DMSO group. CA—cinnamic acid.

[5] = tested on: Mycobacterium tuberculosis H37Ra/ATCC 25177; test: In vitro antimycobacterial evaluation; format: cell-based; conditions: M. tuberculosis H37Ra
Description: Isoniazid (Sigma) was used as the standard.

[6] = Lipophilicity determination by RP-TLC; format: physicochemical; set-up: key to RM (MeOH:H2O): RM = log(1/RF - 1), from RP-18 TLC; conditions: for RM (MeOH:H2O): 72:28 MeOH:H2O; for RM (pH 7.4): 72:28 MeOH:NaOAc buffer (pH 7.4)
Procedure: RM values were determined from the RP-18 TLC measurements. […] The volatiles were carefully evaporated, and the plate was developed by MeOH (100%) or MeOH: H2O-HPLC (72:28 v/v) or MeOH: NaOAc buffer, pH 7.4 (72:28 v/v). After drying, the spots were visualized under UV (λ = 365 nm). RM data were obtained from equation: RM = log(1/RF-1). Each experiment was repeated three times.

[7] = tested on: Staphylococcus aureus ATCC 29213; test: In vitro antibacterial evaluation, broth microdilution MIC, reference strain; format: cell-based; conditions: Staphylococcus aureus, ATCC29213; S. aureus ATCC 29213
[8] = tested on: THP1-Blue™ NF-κB cell line; test: In vitro cell viability assay (WST-1); format: cell-based; conditions: Homo sapiens; THP1-Blue NF-κB cells, 24 h incubation, WST-1, mean ± SEM, n = 6; read-out: Tox IC50 ± SEM
Procedure: The cytotoxic effect of the tested compounds was specified on THP1-Blue™ NF-κB cell line (Invivogen; San Diego, CA, USA), as described previously. […] The final concentration of DMSO was 0.1% (v/v) in each well. The viability analysis was performed after 24 h incubation with the tested substances using the WST-1 Cell Proliferation Reagent kit (Roche Diagnostics, Basel, Switzerland) according to the manufacturer’s manual. […] The IC50 values were calculated by four-parameter logistic (4PL) analysis from obtained viability curves by GraphPad Prism 8.0.1 (San Diego, CA, USA) software.

Structure (SMILES)	MIC [1] [µM]	MIC [2] [µM]	Logk [3]	increase of NF-κB activity [4]	MIC [5] [µM]	RM (MeOH:H2O) [6]	RM (pH 7.4) [6]	RM (100% MeOH) [6]	chromatographic logD (physchem; pH 6.5)	chromatographic logD (physchem; pH 7.4)	MIC [7] [µM]	IC50 [8] [µM]
CC1(C)S[C@@H]2[C@H](NC(=O)[C@H](N)c3ccccc3)C(=O)N2[C@H]1C(=O)O [AMP, ampicillin, reference compound]	45.8 (≈ 16 µg/mL)	45.8 (≈ 16 µg/mL)										
O=C(/C=C/c1ccccc1)Nc1c(F)cc(F)cc1F [Compound 2, (2E)-3-Phenyl-N-(2,4,6-trifluorophenyl)prop-2-enamide]	> 924	> 924	−0.0831	10–15%	> 462	0.1218	0.1951	−0.6536	0.0107	0.026	> 924	> 20
O=C(/C=C/c1ccccc1)Nc1cc(F)c(F)c(F)c1 [Compound 3, (2E)-3-Phenyl-N-(3,4,5-trifluorophenyl)prop-2-enamide]	> 924	> 924	0.4893		> 462	0.6074	0.5495	−0.4206	0.527	0.549	462 (≈ 128 µg/mL)	> 20
O=C(/C=C/c1ccccc1)Nc1ccc(Cl)cc1Cl [Compound 4, (2E)-N-(2,4-Dichlorophenyl)-3-phenylprop-2-enamide]	> 880	> 880	0.5278	10–15%		0.6546	0.5495	−0.3933	0.569	0.589	> 880	> 20
O=C(/C=C/c1ccccc1)Nc1cc(Cl)c(Cl)cc1Cl [Compound 5, (2E)-3-Phenyl-N-(2,4,5-trichlorophenyl)prop-2-enamide]	> 790	> 790	0.8373	10–15%		0.9695	0.9832	−0.2497	0.865	0.888	> 790	> 20
O=C(/C=C/c1ccccc1)Nc1cc(Cl)c(Cl)c(Cl)c1 [Compound 6, (2E)-3-Phenyl-N-(3,4,5-trichlorophenyl)prop-2-enamide]	> 790	> 790	0.9671		> 395	1.0852	1.1306	−0.1870	0.99	1.01	> 790	> 20
O=C(/C=C/c1ccccc1)Nc1ccc(Br)cc1Br [Compound 7, (2E)-N-(2,4-Dibromophenyl)-3-phenylprop-2-enamide]	> 677	> 677	0.6152		> 339	0.7331	0.7295	−0.3098	0.652	0.67	> 677	> 20
O=C(/C=C/c1ccccc1)Nc1cc(Cl)ccc1F [Compound 8, (2E)-N-(5-Chloro-2-fluorophenyl)-3-phenylprop-2-enamide]	> 931	> 931	0.3692		> 465	0.5411	0.5495	−0.4711	0.415	0.433	931 (≈ 257 µg/mL)	> 20
O=C(/C=C/c1ccccc1)Nc1ccc(Br)c(F)c1 [Compound 9, (2E)-N-(4-Bromo-3-fluorophenyl)-3-phenylprop-2-enamide]	805 (≈ 258 µg/mL)	> 805	0.5025		> 403	0.6797	0.6895	−0.4081	0.541	0.56	> 805	> 20
O=C(/C=C/c1ccccc1)Nc1ccc(Br)c(Cl)c1 [Compound 11, (2E)-N-(4-Bromo-3-chlorophenyl)-3-phenylprop-2-enamide]	192 (≈ 64.6 µg/mL)	192 (≈ 64.6 µg/mL)	0.6611		> 383	0.8388	0.8181	−0.3376	0.691	0.713	> 766	6.5 ± 1
O=C(/C=C/c1ccccc1)Nc1ccc(Cl)cc1Br [Compound 12, (2E)-N-(2-Bromo-4-chlorophenyl)-3-phenylprop-2-enamide]	> 766	> 766	0.5476		> 383	0.6553	0.6484	−0.4072	0.586	0.606	> 766	> 20
O=C(/C=C/c1ccccc1)Nc1ccc(Cl)cc1C(F)(F)F [Compound 15, (2E)-N-[4-Chloro-2-(trifluoromethyl)phenyl]-3-phenylprop-2-enamide]	> 788	> 788	0.4113		> 394	0.5305	0.3219	−0.6102	0.454	0.474	> 788	> 20
O=C(/C=C/c1ccccc1)Nc1ccc(Br)cc1C(F)(F)F [Compound 16, (2E)-N-[4-Bromo-2-(trifluoromethyl)phenyl]-3-phenylprop-2-enamide]	> 696	> 696	0.4683		> 348	0.5730	0.4273	−0.5624	0.51	0.532	> 696	> 20
O=C(/C=C/c1ccccc1)Nc1ccc([N+](=O)[O-])cc1C(F)(F)F [Compound 17, (2E)-N-[4-Nitro-2-(trifluoromethyl)phenyl]-3-phenylprop-2-enamide]	> 762	> 762	0.3794		> 381	0.4998	0.4311	−0.5633	0.399	0.443	> 762	> 20
O=C(/C=C/c1ccccc1)Nc1c(Br)cc(C(F)(F)F)cc1Br [Compound 19, (2E)-N-[2,6-Dibromo-4-(trifluoromethyl)phenyl]-3-phenylprop-2-enamide]	> 574	> 574	0.4321		> 287	0.5301	0.3733	−0.5206	0.473	0.494	> 574	> 20
NNC(=O)c1ccncc1 [INH, isoniazid, reference compound]					36.6 (≈ 5.02 µg/mL)							
